Here are results for 24 molecules from patent publication US6878713B2, “Generation triple-targeting, chiral, broad-spectrum antimicrobial 7-substituted piperidino-quinolone carboxylic acid derivatives, their preparation, compositions and use as medicaments” (Wockhardt Limited, priority 2001, dated 2005).

In general, melting point refers to the temperature, or range, at which the solid turns liquid. The term MIC denotes the lowest concentration that inhibits growth of the organism.

In series [1] the test system is Fluoroquinolone Sensitive Strains. The series can be described thus: In-vitro antimicrobial test (MIC, two-fold serial agar dilution, NCCLS), Table 17. Format: cell-based. The protocol:
The test method was in accordance with the standard NCCLS protocol (Methods for Dilution Antimicrobial Susceptibility Tests for Bacteria that grow Aerobicially, Approved Standards, M7-A5, Fifth Edition, January 2000).
The antibacterial activities (minimum inhibitory concentration: MIC, […]) were determined by using the two-fold serial agar dilution method recommended by NCCLS. The media used for preculture and main culture were Tryptic Soya broth (Difco) and Mueller Hinton medium (Difco), respectively. The Mueller Hinton agar was supplemented with 5% sheep blood for streptococci. Overnight cultures were diluted with buffered saline (pH 7.2) to the final cell density of 5×10^6-10^7 CFU/ml, and each bacterial suspension was applied with a replicator (Denley's multipoint inoculator, UK) onto a series of Mueller-Hinton agar plates containing antibacterial agents at various concentrations. Final inoculum was approximately 10^4 CFU/spot. The plates were incubated for 18 hrs at 37° C. The MIC was defined as the lowest concentration of an antibacterial agent that inhibits the development of visible microbial growth on agar.
In general terms: In agar dilution, organisms are placed on agar that contains the substance at set levels.

[2] abbreviates: Escherichia coli, ATCC25922, E. coli ATCC 25922.
[3] abbreviates: Staphylococcus aureus, ATCC 25923 / MSSA, MSSA ATCC 25923.
Setting [4] is: Streptococcus pneumoniae, ATCC49619, S. pneumoniae ATCC 49619.

Converted amounts (≈) assume the structure as drawn. A value given as a limit tells only on which side of the number the result lay.

For `COc1c(N2CCC(NC3CC3)C(C)C2)c(F)c(N)c2c(=O)c(C(=O)O)cn(C3CC3)c12` (stereo not shown) [Compound 62, 5-Amino-1-cyclopropyl-6-fluoro-1,4-dihydro-8-methoxy-7-(4-cyclopropylamino-3-methyl-1-piperidinyl)-4-oxo-quinoline-3-carboxylic acid], the melting point is 218 to 220 °C.

`COc1c(N2CCC(N(C)C)C(C)(C)C2)c(F)cc2c(=O)c(C(=O)O)cn(C3CC3)c12` (stereo not shown) [Compound 38, 1-Cyclopropyl-6-fluoro-1,4-dihydro-8-methoxy-7-(4-dimethylamino-3,3-dimethyl-1-piperidinyl)-4-oxo-quinoline-3-carboxylic acid] gave a melting point of 210 °C.

For `COc1c(N2CCC(NC(=O)OCc3ccccc3)C(C)(C)C2)c(F)cc2c(=O)c(C(=O)O)cn(C3CC3)c12` (racemic) [Compound 32, (±)-1-Cyclopropyl-6-fluoro-1,4-dihydro-8-methoxy-7-(4-benzyloxycarbonylamino-3,3-dimethyl-1-piperidinyl)-4-oxo-quinoline-3-carboxylic acid], the melting point was in the range of 158 to 160 °C.

For `COc1c(N2CCC(N(C)C)C(C)(C)C2)c(F)c(N)c2c(=O)c(C(=O)O)cn(C3CC3)c12` (stereo not shown) [Compound 76, 5-Amino-1-cyclopropyl-6-fluoro-1,4-dihydro-8-methoxy-7-(4-dimethylamino-3,3-dimethyl-1-piperidinyl)-4-oxo-quinoline-3-carboxylic acid], the melting point was 178 °C (dec.).

Take `COc1c(N2CC(C)C(NC3CC3)C(C)C2)c(F)cc2c(=O)c(C(=O)O)cn(C3CC3)c12` (stereo not shown) [Compound 48, 1-Cyclopropyl-6-fluoro-1,4-dihydro-8-methoxy-7-(4-cyclopropylamino-3,5-dimethyl-1-piperidinyl)-4-oxo-quinoline-3-carboxylic acid]: the MIC in series [1] (setting [2]) was 6.25 µg/mL (≈ 14.1 µM); in series [1] (setting [3]) it was 1.56 µg/mL (≈ 3.52 µM); in series [1] (setting [4]), above 6.25 µg/mL.

In turn, `COc1c(N2CCC(O)C(C)C2)c(F)c(N)c2c(=O)c(C(=O)O)cn(C3CC3)c12` (stereo not shown) [Compound 135, 5-Amino-1-cyclopropyl-6-fluoro-1,4-dihydro-8-methoxy-7-(4-hydroxy-3-methyl-1-piperidinyl)-4-oxo-quinoline-3-carboxylic acid] showed a melting point of 240 to 244 °C.

Turning to `Cc1c(N2CCC(N)C(C)(C)C2)c(F)c(N)c2c(=O)c(C(=O)O)cn(C3CC3)c12` (racemic) [Compound 131, (±)-5-Amino-1-cyclopropyl-6-fluoro-1,4-dihydro-8-methyl-7-(4-amino-3,3-dimethyl-1-piperidinyl)-4-oxo-quinoline-3-carboxylic acid], the MIC worked out at 1.56 µg/mL (≈ 3.88 µM) in series [1] (setting [2]) and 0.8 µg/mL (≈ 1.99 µM) in series [1] (setting [3]).

`COc1c(N2CC(C)C(O)C(C)C2)c(F)cc2c(=O)c(C(=O)O)cn(C3CC3)c12` (stereo not shown) [Compound 145, 1-Cyclopropyl-6-fluoro-1,4-dihydro-8-methoxy-7-(4-hydroxy-3,5-dimethyl-1-piperidinyl)-4-oxo-quinoline-3-carboxylic acid]: the figures for the MIC in series [1] (setting [2]), in series [1] (setting [3]) and in series [1] (setting [4]) were 1.56 µg/mL (≈ 3.86 µM), 0.025 µg/mL (≈ 0.0618 µM) and 0.4 µg/mL (≈ 0.989 µM), respectively.

In turn, `CNC1C(C)CN(c2c(F)c(N)c3c(=O)c(C(=O)O)cn(C4CC4)c3c2OC)CC1C` (stereo not shown) [Compound 83, 5-Amino-1-cyclopropyl-6-fluoro-1,4-dihydro-8-methoxy-7-(4-methylamino-3,5-dimethyl-1-piperidinyl)-4-oxo-quinoline-3-carboxylic acid] showed a melting point of 224 to 226 °C.

Take `COc1c(N2CC(C)C(N)C(C)C2)c(F)cc2c(=O)c(C(=O)O)cn(C3CC3)c12` (stereo not shown) [Compound 44, 1-Cyclopropyl-6-fluoro-1,4-dihydro-8-methoxy-7-(4-amino-3,5-dimethyl-1-piperidinyl)-4-oxo-quinoline-3-carboxylic acid]: the melting point lay within 178 to 180 °C.

`CCC1(C)CN(c2c(F)c(N)c3c(=O)c(C(=O)O)cn(C4CC4)c3c2OC)CCC1NC1CC1` (stereo not shown) [Compound 79, 5-Amino-1-cyclopropyl-6-fluoro-1,4-dihydro-8-methoxy-7-(4-cyclopropylamino-3-methyl-3-ethyl-1-piperidinyl)-4-oxo-quinoline-3-carboxylic acid] showed a melting point of 186 to 188 °C.

With `COc1c(N2CC[C@H](N)[C@H](C)C2)c(F)cc2c(=O)c(C(=O)O)cn(C3CC3)c12` (relative stereo) [Compound 5, cis-1-Cyclopropyl-6-fluoro-1,4-dihydro-8-methoxy-7-(4-amino-3-methyl-1-piperidinyl)-4-oxo-quinoline-3-carboxylic acid], the melting point is 246 to 250 °C.

In turn, `CCC1(C)CN(c2c(F)c(N)c3c(=O)c(C(=O)O)cn(C4CC4)c3c2OC)CCC1NC` (stereo not shown) [Compound 78, 5-Amino-1-cyclopropyl-6-fluoro-1,4-dihydro-8-methoxy-7-(4-methylamino-3-ethyl-3-methyl-1-piperidinyl)-4-oxo-quinoline-3-carboxylic acid] registered a melting point of 164 to 166 °C.

Turning to `Cc1c(N2CC[C@H](N)[C@H](C)C2)c(F)cc2c(=O)c(C(=O)O)cn(C3CC3)c12` (relative stereo) [Compound 99, cis-1-Cyclopropyl-6-fluoro-1,4-dihydro-8-methyl-7-(4-amino-3-methyl-1-piperidinyl)-4-oxo-quinoline-3-carboxylic acid], the melting point lay in the range of 224 to 228 °C.

With `CCC1CN(c2c(F)c(N)c3c(=O)c(C(=O)O)cn(C4CC4)c3c2OC)CCC1O` (stereo not shown) [Compound 137, 5-Amino-1-cyclopropyl-6-fluoro-1,4-dihydro-8-methoxy-7-(4-hydroxy-3-ethyl-1-piperidinyl)-4-oxo-quinoline-3-carboxylic acid], the melting point was 217 to 219 °C.

As for `COc1c(N2CC(C)C(O)C(C)(C)C2)c(F)cc2c(=O)c(C(=O)O)cn(C3CC3)c12` (stereo not shown) [Compound 147, 1-Cyclopropyl-6-fluoro-1,4-dihydro-8-methoxy-7-(4-hydroxy-3,3,5-trimethyl-1-piperidinyl)-4-oxo-quinoline-3-carboxylic acid], the MIC was 0.4 µg/mL (≈ 0.956 µM) in series [1] (setting [2]), below 0.006 µg/mL in series [1] (setting [3]) and 0.1 µg/mL (≈ 0.239 µM) in series [1] (setting [4]).

Take `CCNC1C(C)CN(c2c(F)c(N)c3c(=O)c(C(=O)O)cn(C4CC4)c3c2OC)CC1C` (stereo not shown) [Example 58, 5-amino-1-cyclopropyl-6-fluoro-1,4-dihydro-8-methoxy-7-(4-ethylamino-3,5-dimethyl-1-piperidinyl)-4-oxo-quinoline-3-carboxylic acid]: the melting point is 255 to 258 °C.

For `COc1c(N2CCC(N)C(C)(C)C2)c(F)cc2c(=O)c(C(=O)O)cn(C3CC3)c12` (racemic) [Compound 17, (±)-1-Cyclopropyl-6-fluoro-1,4-dihydro-8-methoxy-7-(4-amino-3,3-dimethyl-1-piperidinyl)-4-oxo-quinoline-3-carboxylic acid], the MIC in series [1] (setting [2]) and in series [1] (setting [3]) was 0.4 µg/mL (≈ 0.991 µM) in each case.

For `CCc1c(N2CC[C@H](O)[C@H](C)C2)c(F)cc2c(=O)c(C(=O)O)cn(C3CC3)c12` (relative stereo) [Compound 120, cis-1-Cyclopropyl-6-fluoro-8-ethyl-7-(4-hydroxy-3-methyl-1-piperidinyl)-1,4-dihydro-4-oxo-quinoline-3-carboxylic acid], the minimum inhibitory concentration (MIC) worked out at 0.8 µg/mL (≈ 2.06 µM) in series [1] (setting [2]), 0.1 µg/mL (≈ 0.257 µM) in series [1] (setting [3]) and 0.8 µg/mL (≈ 2.06 µM) in series [1] (setting [4]).

With `CCOC(=O)NC1CCN(c2c(F)c(N)c3c(=O)c(C(=O)O)cn(C4CC4)c3c2OC)CC1(C)C` (stereo not shown) [Compound 70, 5-Amino-1-cyclopropyl-6-fluoro-1,4-dihydro-8-methoxy-7-(4-ethoxycarbonylamino-3,3-dimethyl-1-piperidinyl)-4-oxo-quinoline-3-carboxylic acid], the MIC stood at 0.4 µg/mL (≈ 0.815 µM) in series [1] (setting [2]), 0.05 µg/mL (≈ 0.102 µM) in series [1] (setting [3]) and 0.2 µg/mL (≈ 0.408 µM) in series [1] (setting [4]).

As for `Cc1c(N2CCC(N)C(C)(C)C2)c(F)c(N)c2c(=O)c(C(=O)O)cn(C3CC3)c12` (single isomer, unassigned; (-)) [Compound 133, (−)-5-Amino-1-cyclopropyl-6-fluoro-1,4-dihydro-8-methyl-7-(4-amino-3,3-dimethyl-1-piperidinyl)-4-oxo-quinoline-3-carboxylic acid], the results for the MIC in series [1] (setting [2]), in series [1] (setting [3]) and in series [1] (setting [4]) were 0.4 µg/mL (≈ 0.994 µM), 0.025 µg/mL (≈ 0.0621 µM) and 0.2 µg/mL (≈ 0.497 µM), respectively.

Regarding `COc1c(N2CCC(NC3CC3)C(C)(C)C2)c(F)c(N)c2c(=O)c(C(=O)O)cn(C3CC3)c12` (stereo not shown) [Compound 75, 5-Amino-1-cyclopropyl-6-fluoro-1,4-dihydro-8-methoxy-7-(4-cyclopropylamino-3,3-dimethyl-1-piperidinyl)-4-oxo-quinoline-3-carboxylic acid], the values for the MIC in series [1] (setting [2]), in series [1] (setting [3]) and in series [1] (setting [4]) were 0.2 µg/mL (≈ 0.436 µM), 0.05 µg/mL (≈ 0.109 µM) and 0.2 µg/mL (≈ 0.436 µM), respectively.

With `CCn1cc(C(=O)O)c(=O)c2cc(F)c(N3CC(C)C(NC)C(C)C3)c(OC)c21` (stereo not shown) [Compound 46, 1-Ethyl-6-fluoro-1,4-dihydro-8-methoxy-7-(4-methylamino-3,5-dimethyl-1-piperidinyl)-4-oxo-quinoline-3-carboxylic acid], the MIC in series [1] (setting [2]) stood at 0.1 µg/mL (≈ 0.247 µM); in series [1] (setting [3]) it was 0.05 µg/mL (≈ 0.123 µM); in series [1] (setting [4]), 0.1 µg/mL (≈ 0.247 µM).

For `Cc1c(N2CCC(O)C(C)C2)c(F)cc2c(=O)c(C(=O)O)cn(C3CC3)c12` (mixture of isomers) [Compound 92, cis/trans-1-Cyclopropyl-6-fluoro-8-methyl-7-(4-hydroxy-3-methyl-1-piperidinyl)-1,4-dihydro-4-oxo-quinoline-3-carboxylic acid], the MICs in series [1] (E. coli ATCC 25922) came to 0.05 µg/mL; in series [1] (MSSA ATCC 25923), 0.1 µg/mL.
